Test results taken from ChEMBL document CHEMBL3351798, “Discovery of the CCR1 antagonist, BMS-817399, for the treatment of rheumatoid arthritis” (J Med Chem, 2014).
pIC50: −log10 of the molar value. The source made the active and inactive calls. No cut-off for these calls is given here.

What was measured:
[1] = target: T1, Chemokine (C-C motif) receptor 1 (Canis lupus familiaris, UniProt Q2V0Q7); assay: Displacement of [125I]hMIP-1alpha from dog PBMC CCR1
T1 sequence (Q2V0Q7 whole entry): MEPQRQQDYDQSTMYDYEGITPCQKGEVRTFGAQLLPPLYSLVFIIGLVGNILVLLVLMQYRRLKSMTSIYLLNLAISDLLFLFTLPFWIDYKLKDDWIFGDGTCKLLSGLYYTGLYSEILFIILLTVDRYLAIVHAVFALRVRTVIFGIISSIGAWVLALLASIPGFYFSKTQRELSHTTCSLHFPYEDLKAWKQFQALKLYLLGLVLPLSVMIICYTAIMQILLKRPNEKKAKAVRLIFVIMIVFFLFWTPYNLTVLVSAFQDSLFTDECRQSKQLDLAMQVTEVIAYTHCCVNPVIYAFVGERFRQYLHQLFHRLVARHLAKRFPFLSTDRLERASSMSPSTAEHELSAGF

[2] = Bioavailability in mouse at 5 mg/kg; assay type: ADME, organism-based; details: in vivo
[3] = target: T2, C-C chemokine receptor type 4 (Homo sapiens) (UniProt P51679); assay: Binding affinity to CCR4 receptor (unknown origin)
T2 sequence (whole entry): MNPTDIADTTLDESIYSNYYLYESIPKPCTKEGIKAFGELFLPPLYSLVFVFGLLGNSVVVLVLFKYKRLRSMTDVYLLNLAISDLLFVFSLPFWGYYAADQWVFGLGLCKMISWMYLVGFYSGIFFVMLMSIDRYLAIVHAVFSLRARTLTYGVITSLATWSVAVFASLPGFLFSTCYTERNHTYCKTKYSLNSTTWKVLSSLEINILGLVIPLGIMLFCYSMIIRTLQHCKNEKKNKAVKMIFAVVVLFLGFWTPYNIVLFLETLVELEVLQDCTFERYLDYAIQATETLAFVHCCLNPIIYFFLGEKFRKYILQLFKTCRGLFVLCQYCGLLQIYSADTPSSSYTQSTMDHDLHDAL

[4] = Metabolic stability in mouse liver microsomes assessed as compound remaining at 0.5 uM after 60 mins by UV-LC/MS analysis; assay type: ADME; details: read-out: Stability
[5] = target: T3, C-C chemokine receptor type 1 (Mus musculus, UniProt P51675); assay: Displacement of [125I]hMIP-1alpha from mouse CCR1
T3 sequence (P51675 whole entry): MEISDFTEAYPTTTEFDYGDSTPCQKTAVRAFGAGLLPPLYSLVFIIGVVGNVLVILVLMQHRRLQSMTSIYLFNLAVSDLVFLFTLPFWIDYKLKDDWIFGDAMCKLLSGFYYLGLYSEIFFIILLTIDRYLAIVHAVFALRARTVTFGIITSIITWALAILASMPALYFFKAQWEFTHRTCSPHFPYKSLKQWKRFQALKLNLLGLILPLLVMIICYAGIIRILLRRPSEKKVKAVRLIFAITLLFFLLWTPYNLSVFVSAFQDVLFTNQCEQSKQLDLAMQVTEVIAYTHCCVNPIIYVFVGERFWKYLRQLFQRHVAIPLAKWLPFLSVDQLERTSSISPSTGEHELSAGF

[6] = organism: Homo sapiens; assay: Inhibition of Na+ channel (unknown origin)
[7] = target: T4, C-C chemokine receptor type 1 (Homo sapiens, UniProt P32246); assay: Displacement of [125I]hMIP-1alpha from CCR1 in human PBMC
T4 sequence (P32246 whole entry): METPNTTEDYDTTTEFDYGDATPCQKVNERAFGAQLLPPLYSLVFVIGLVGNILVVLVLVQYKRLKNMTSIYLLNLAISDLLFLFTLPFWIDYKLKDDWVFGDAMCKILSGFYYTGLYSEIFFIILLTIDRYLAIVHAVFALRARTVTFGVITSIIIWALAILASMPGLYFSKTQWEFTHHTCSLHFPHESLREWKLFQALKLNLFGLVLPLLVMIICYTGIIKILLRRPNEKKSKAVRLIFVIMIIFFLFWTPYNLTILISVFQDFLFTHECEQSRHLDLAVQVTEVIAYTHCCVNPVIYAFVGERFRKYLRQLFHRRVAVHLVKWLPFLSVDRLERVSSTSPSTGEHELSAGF

[8] = target: T4, C-C chemokine receptor type 1; assay: Displacement of [125I]MIP-1alpha from CCR1 in human THP1 cells; assay type: cell-based, THP-1
[9] = target: T4, C-C chemokine receptor type 1; assay: Antagonist activity at CCR1 receptor in human whole blood assessed as blocked of LKN1-mediated CD11b upregulation preincubated for 1 hr
[10] = target: T5, C-X-C chemokine receptor type 5 (Homo sapiens) (UniProt P32302); assay: Binding affinity to CXCR5 receptor (unknown origin)
T5 sequence (whole entry): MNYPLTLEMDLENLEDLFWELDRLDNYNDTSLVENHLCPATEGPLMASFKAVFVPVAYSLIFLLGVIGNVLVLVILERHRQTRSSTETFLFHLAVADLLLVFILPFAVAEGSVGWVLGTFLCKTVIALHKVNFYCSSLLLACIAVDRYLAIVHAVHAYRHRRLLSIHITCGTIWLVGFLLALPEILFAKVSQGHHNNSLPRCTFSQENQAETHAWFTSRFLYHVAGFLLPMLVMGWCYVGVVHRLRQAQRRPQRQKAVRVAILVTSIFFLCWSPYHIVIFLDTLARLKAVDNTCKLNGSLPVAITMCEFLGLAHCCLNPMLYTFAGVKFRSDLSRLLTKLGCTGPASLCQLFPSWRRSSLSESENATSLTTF

[11] = organism: Homo sapiens; assay: Inhibition of Ca+ channel (unknown origin)
[12] = target: T4, C-C chemokine receptor type 1; assay: Antagonist activity at CCR1 receptor in human whole blood assessed as blocked of MIP-1alpha-mediated CD11b upregulation preincubated for 1 hr
[13] = Displacement of [125I]hMIP-1alpha from rat CCR1
[14] = Displacement of [125I]hMIP-1alpha from monkey PBMC CCR1; set-up: species or system Macaca mulatta
[15] = target: T6, C-X-C chemokine receptor type 3 (Homo sapiens) (UniProt P49682); assay: Binding affinity to CXCR3 receptor (unknown origin)
T6 sequence (whole entry): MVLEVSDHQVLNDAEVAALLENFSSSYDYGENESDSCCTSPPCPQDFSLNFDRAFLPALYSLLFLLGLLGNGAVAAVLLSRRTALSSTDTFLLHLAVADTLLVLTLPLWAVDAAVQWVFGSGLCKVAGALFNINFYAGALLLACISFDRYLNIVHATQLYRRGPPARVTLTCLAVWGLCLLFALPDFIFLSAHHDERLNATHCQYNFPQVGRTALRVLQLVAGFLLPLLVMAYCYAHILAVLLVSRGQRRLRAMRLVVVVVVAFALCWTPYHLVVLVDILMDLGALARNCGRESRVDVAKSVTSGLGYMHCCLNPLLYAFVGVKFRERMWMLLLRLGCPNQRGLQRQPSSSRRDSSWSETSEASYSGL

[16] = target: C-C chemokine receptor type 2 (Homo sapiens) (UniProt P41597); assay: Binding affinity to CCR2 receptor (unknown origin)
Sequence of C-C chemokine receptor type 2 (Homo sapiens) (P41597 whole entry, looked up): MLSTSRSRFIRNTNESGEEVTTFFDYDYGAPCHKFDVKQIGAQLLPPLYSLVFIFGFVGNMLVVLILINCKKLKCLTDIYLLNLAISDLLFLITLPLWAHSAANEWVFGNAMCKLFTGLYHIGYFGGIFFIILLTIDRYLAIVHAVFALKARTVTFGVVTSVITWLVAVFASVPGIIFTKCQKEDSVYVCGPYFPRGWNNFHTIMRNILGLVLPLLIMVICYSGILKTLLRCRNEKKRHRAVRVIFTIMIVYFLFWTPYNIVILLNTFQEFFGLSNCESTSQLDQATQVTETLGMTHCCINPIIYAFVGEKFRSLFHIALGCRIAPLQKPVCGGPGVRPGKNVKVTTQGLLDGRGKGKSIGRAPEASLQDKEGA

[17] = Bioavailability in rat at 5 mg/kg; assay type: ADME, organism-based; details: in vivo
[18] = Unbound fraction in human serum; assay type: ADME, cell-free
[19] = Bioavailability in dog at 5 mg/kg; assay type: ADME, organism-based, Canis lupus familiaris; details: in vivo

With `CC(C)[C@@H](NC(=O)NCC(C)(C)O)C(=O)N1CC[C@](O)(c2ccc(Cl)cc2)C(C)(C)C1` [BMS-817399] as the compound, how does the pIC50 [1] read?
The pIC50 was 6.20.

What about the bioavailability [2] of the same compound?
The bioavailability was 79%.

And the Activity [3]?
The Activity was “inactive”.

And the remaining at 1 h, 0.5 µM [4]?
The remaining at 1 h, 0.5 µM was 86%.

What about the pIC50 [5] of the same compound?
Its pIC50 is less than 4.30.

And the inhibition [6]?
Its inhibition is “inactive”.

What about the pIC50 [7] of the same compound?
Its pIC50 is 8.38.

What about the pIC50 [8] of the same compound?
Its pIC50 is 9.00.

And the pIC50 [9]?
The pIC50 was 7.38.

What about the Activity [10] of the same compound?
Its Activity is “inactive”.

And the inhibition [11]?
Its inhibition is “inactive”.

What about the pIC50 [12] of the same compound?
Its pIC50 is 7.60.

And the pIC50 [13]?
Its pIC50 is less than 4.30.

What about the pIC50 [14] of the same compound?
Its pIC50 is less than 4.30.

And the Activity [15]?
Its Activity is “inactive”.

And the Activity [16]?
The Activity was “inactive”.

And the bioavailability [17]?
Its bioavailability is 46%.

And the fraction unbound [18]?
Its fraction unbound is 0.19.

And the bioavailability [19]?
The bioavailability was 100%.
